Data published in US9290473B2, “Inhibitors of phosphatidylinositol-3-kinase (PI3) and inducers of nitric oxide (NO)” (COUCIL OF SCIENTIFIC & INDUSTRIAL RESEARCH, priority 2009, dated 2016).
Read-outs that look alike come from different tables or passages of the source.

Columns and labels:
[1] = tested on: chronic myeloid leukemia cell line KU812; assay: Cell viability, trypan blue exclusion, KU812; type: cell-based; conditions: Homo sapiens, 72 hours incubation
Description: (§1) Following cancer cell lines were used: chronic myeloid leukemia cell lines K562, KU812; acute myeloid leukemia cell lines HL60, U937; T-lymphoblastic leukemia cell line Molt-4; prostate cancer cell line PC-3; breast cancer cell line MCF-7; pancreatic cancer cell line MIA PaCa-2. These cancer cell lines were maintained in tissue culture in standard growth medium containing 10% heat-inactivated fetal bovine serum (FBS). Normal human peripheral blood mononuclear cells (PBMC) were separated from whole blood by Ficoll/Hypaque density gradient centrifugation. Peripheral blood samples were collected from normal donors with due approval from the Human Ethics Committee of Indian Institute of Chemical Biology, Kolkata, India, and all experiments with human blood were conducted under an approved institutional Human Ethics committee protocol. Informed consent was provided according to the Declaration of Helsinki. Cancer cell lines and PBMC (5×10^3) in triplicate were incubated in 0.2 mL of standard growth medium containing 10% FBS with varying concentrations of test compounds of the present invention. After 72 hours of incubation, cells were collected by centrifugation (at 1000 g for 5 minutes) and cell-viability was determined by the trypan blue exclusion assay. At least 200 cells were examined in each sample. Because of monolayer culture, treated and untreated PC-3, MCF-7 and MIA PaCa-2 cells were detached from the wells by treatment with Cell Dissociation Solution (Sigma Chemical, St. Louis, Mo.) before counting. Data are represented as IC50 (minimum concentration required to inhibit the viability by 50%) in Table 5.

[2] = tested on: acute myeloid leukemia cell line HL60; assay: Cell viability, trypan blue exclusion, HL-60; type: cell-based; conditions: Homo sapiens
Description: as §1

[3] = tested on: breast cancer cell line MCF-7; assay: Cell viability, trypan blue exclusion, MCF-7; type: cell-based, human
Description: as §1

[4] = tested on: pancreatic cancer cell line MIA PaCa-2; assay: Cell viability, trypan blue exclusion, MIA PaCa-2; type: cell-based, human; conditions: read-out: Activity (IC50) MIAPaCa-2
Description: as §1

[5] = tested on: prostate cancer cell line PC-3; assay: Cell viability, trypan blue exclusion, PC-3; type: cell-based, human; conditions: 72 hours incubation
Description: as §1

[6] = tested on: chronic myeloid leukemia cell line K562; assay: Cell viability, trypan blue exclusion, K562; type: cell-based; conditions: Homo sapiens
Description: as §1

[7] = tested on: T-lymphoblastic leukemia cell line Molt-4; assay: Cell viability, trypan blue exclusion, Molt-4; type: cell-based, human
Description: as §1

[8] = tested on: Normal human peripheral blood mononuclear cells (PBMC); assay: Cell viability, trypan blue exclusion, normal PBMC; type: cell-based; conditions: 72 hours incubation
Description: as §1

U937 cells = assay: Morphology and apoptosis/necrosis in U937 cells (Giemsa; annexin V-FITC/PI flow cytometry); type: cell-based, human; conditions: Compound No.1 30 μM, Compound No.7 15 μM, 24 hours, annexin V-FITC/PI
Protocol: U937 cells were treated with standard growth medium alone or with standard growth medium containing hydroxychavicol (30 μM) for 24 hours. Treated and untreated cells were stained with Giemsa and viewed under microscope (magnification ×1000). For measurement of apoptosis/necrosis, cells were left untreated or treated with Compound No. 1 (30 μM) or Compound No.7 (15 μM) for 24 hours. After washing, cells were stained with fluorescein isothiocyanate (FITC)-conjugated annexin V and propidium iodide (PI) and analysed in a flow cytometer (BD LSR, Becton Dickinson).
FIG. 2B indicates flow cytometric determination of apoptosis and necrosis by Compound No.1 (hydroxychavicol) and Compound No.7. Apoptosis and necrosis of U937 cells were induced. Cells were left untreated (extreme left panel), or incubated with Compound No.1 (30 μM) (middle panel) or Compound No.7 (extreme right panel) (15 μM) for 24 hours and processed for flow cytometry after staining with annexin V-FITC and propidium iodide (PI). Viable cells are in the lower left quadrant (stained neither by annexin V nor by PI), early apoptotic cells (stained by annexin V only) are in the lower right quadrant, late-stage apoptotic cells (stained by both annexin V and PI) are in the upper right quadrant and the necrotic cells (stained by PI only) are in the upper left quadrant.

[9] = Sensitivity to spontaneous autooxidation (H2O2 level, TMB reagent); type: physicochemical; conditions: 30 µM, 30 min and 2 hr in medium alone, with and without Catalase; H2O2 in supernatant
Protocol: Spontaneous autooxidation of compounds having phenolic groups produce reactive oxygen species like H2O2. The enzyme Catalase breaks down H2O2 to water, We therefore incubated Compound 1 and 7 (30 µM each) for 30 min and 2 hr in medium alone in the presence and absence of Catalase. Level of H2O2 in the supernatant was then measured as reported using 3,5,3′,5′-tetramethylbenzidine (TMB) reagent (Plant Physiology, 2004, 136, 3114-3123). FIG. 1 represents the data of sensitivity of spontaneous autooxidation of Compound 1 and Compound 7.

[10] = tested on: Ehrlich ascites carcinoma (EAC); assay: Ehrlich ascites carcinoma (EAC) model in vivo; conditions: 30 mg/kg body weight intraperitoneally thrice a week for three weeks, Swiss albino mice
Description: The in vitro studies indicate that hydroxychavicol and other compounds of the present invention induce killing of a variety of cancer cell lines including breast cancer cell line MCF-7 (Table 5). The MCF-7 cell line is of epithelial origin. Studies were extended in vivo in mouse model for a tumor of epithelial origin. Ehrlich ascites carcinoma is a tumor of epithelial origin (Cancer Research, 1958, 18, 1167-1185). EAC was established in Swiss albino mice as described (Biochemical and Biophysical Research Communications, 2001, 288, 658-665). Swiss albino mice were injected with EAC (2×10^6 cells/mouse) intraperitoneally. 2 days post-injection of tumor cells, these mice (5 per group) were injected intraperitoneally with Compound No. 1 (hydroxychavicol) (30 mg/kg body weight) or Compound No. 7 (30 mg/kg body weight) thrice a week for three weeks. One week after the last injection, mice were sacrificed, and viable cells from peritoneal cavity were counted microscopically. Vehicle (dimethyl sulphoxide [DMSO], 0.1%) was used as control.

normal human PBMC = assay: Apoptosis/necrosis of normal human PBMC by flow cytometry; type: cell-based; conditions: 30 μM, 24 hours
Protocol: FIG. 2C indicates flow cytometric determination of apoptosis and necrosis of normal human PBMC by Compound 1 (30 μM) and Compound 7 (30 μM) after incubation for 24 hours.

[11] = tested on: acute myeloid leukemia cell line U937; assay: Cell viability, trypan blue exclusion, U937; type: cell-based; conditions: Homo sapiens, U-937, 72 hours incubation
Description: as §1

[12] = 72 hours incubation, trypan blue exclusion, read-out: Activity (IC50) HL-60
[13] = range over both cell lines HL60 and U937 and over the listed compounds, read-out: IC50 against acute myeloid leukemia cancer cell line (HL60, U937)
[14] = Homo sapiens, MCF7, 72 h, 72 hours incubation
[15] = Homo sapiens, MIA PaCa-2, 72 h, 72 hours incubation
[16] = K562, 72 hours incubation, trypan blue exclusion, read-out: Activity (IC50) K562
[17] = read-out: IC50 against chronic myeloid leukemia cancer cell lines (K562), range over both cell lines K562, KU812 and KU812 and over the listed compounds, read-out: IC50 against chronic myeloid leukemia cancer cell lines (K562, KU812)
[18] = Homo sapiens, MOLT-4, 72 h, 72 hours incubation

| Structure (SMILES) | IC50 [1] [µM] | IC50 [2, 12] [µM] | IC50 [2, 13] [µM] | IC50 ([3]; 72 hours incubation) [µM] | IC50 [3, 14] [µM] | IC50 [4, 15] [µM] | IC50 ([5]; Homo sapiens, 72 h) [µM] | IC50 [6, 16] [µM] | IC50 [6, 17] [µM] | IC50 ([7]; 72 hours incubation) [µM] | IC50 [7, 18] [µM] | IC50 [8] [µM] | IC50 [5] [µM] | IC50 [11] [µM] | further results |
| --- | --- | --- | --- | --- | --- | --- | --- | --- | --- | --- | --- | --- | --- | --- | --- |
| C=CCc1cc(O)c(O)cc1CC=C [Compound 2, 4,5-diallylbenzene-1,2-diol] | 25 | 25 | 13 to 60 | 40 | 25 to 70 | 30 to 70 | 25 to 70 | 13 | 13 to 52 | 30 | 15 to 50 | – | – | – | – |
| C=CCc1ccc(O)c(O)c1CC=C [Compound 3, 3,4-diallylbenzene-1,2-diol] | – | 60 | 13 to 60 | 70 | – | – | 25 to 70 | 52 | 13 to 52 | 50 | – | 80 | – | – | IC50 ([4]; 72 hours incubation): 70 µM |
| C=CCc1ccc(OC(C)=O)c(OC(C)=O)c1 [Compound 7, 4-allyl-1,2-phenylene diacetate] | 15 | 15 | 13 to 60 | 25 | 25 to 70 | 30 to 70 | 25 to 70 | 13 | 13 to 52 | 15 | 15 to 50 | 70 | 25 | 13 | Apoptosis and necrosis of U937 cells by flow cytometry (U937 cells): induce apoptosis and necrosis; Sensitivity to spontaneous autooxidation [9]: resistant to spontaneous autooxidation; IC50 ([4]; 72 hours incubation): 30 µM; In vivo efficacy against EAC tumor (viable cells from peritoneal cavity) [10]: effective in vivo in destroying EAC tumor; Apoptosis and necrosis of normal human PBMC by flow cytometry (normal human PBMC): remained unaffected |
| CC(C)(C=NO)c1ccc(O)c(O)c1 [Compound 9, 2-(3,4-dihydroxyphenyl)-2-methylpropanal oxime] | 70 | 64 | – | – | 85 | 85 | 80 | 64 | – | – | 70 | 100 | – | – | – |
| CC(C)(C#N)c1ccc(O)c(O)c1 [Compound 10, 2-(3,4-dihydroxyphenyl)-2-methylpropanenitrile] | 115 | 110 | – | – | 100 | 120 | 120 | 113 | – | – | – | 150 | – | 110 | – |
| CC(=O)ON=CC(C)(C)c1ccc(OC(C)=O)c(OC(C)=O)c1 [Compound 12, 4-(1-(acetoxyimino)-2-methylpropan-2-yl)-1,2-phenylene diacetate] | 190 | 190 | – | – | 200 | – | 200 | 194 | – | – | 190 | 250 | – | 190 | – |
| CCOC(=O)/C=C/C(C)(C)c1ccc(O)c(O)c1 [Compound 13, (E)-ethyl 4-(3,4-dihydroxyphenyl)-4-methylpent-2-enoate] | 45 | 50 | 13 to 60 | 70 | – | 30 to 70 | – | 50 | 13 to 52 | 45 | – | 75 | 70 | 45 | – |
| C=CC(C)(C)c1ccc2c(c1)OCO2 [Compound 14, 5-(2-methylbut-3-en-2-yl)benzo[d][1,3]dioxole] | 650 | 670 | – | – | – | – | – | 657 | – | – | – | 800 | – | 670 | IC50 ([3]; Homo sapiens, MCF7, 72 hours incubation): 680 µM; IC50 ([4]; Homo sapiens, MIA PaCa-2, 72 hours incubation): 680 µM; IC50 ([5]; Homo sapiens): 670 µM; IC50 ([7]; Homo sapiens, MOLT-4, 72 hours incubation): 650 µM |
| C=CCc1cccc(O)c1O [Compound 16, 3-allyl-benzene-1,2-diol] | 25 | 20 | 13 to 60 | – | 25 to 70 | 30 to 70 | 25 to 70 | 20 | 13 to 52 | 20 | 15 to 50 | 30 | 30 | 25 | – |
| C=CCc1cccc(OC(C)=O)c1OC(C)=O [Compound 19, 3-allyl-1,2-phenylene diacetate] | 20 | 15 | – | – | 20 | 20 | 20 | 13 | – | – | 20 | 30 | – | 15 | – |
